This note sets out measurements from ChEMBL document CHEMBL5604063, “ASAP - DENV-2 NS2B-NS3 protease fluorescence dose response” (2024).

pIC50: −log10 of the molar value. Several values for one entry are separate records, joined by “and”; a condition that tells them apart may be missing. Identical values can stand only once.

Assay [1] deals with T1, Genome polyprotein (dengue virus type 2, UniProt P29990). In kind it is functional, Thailand/16681/1984.
For assay [2], the target named is T1, Genome polyprotein. Format: functional, Thailand/16681/1984. The source holds these as a separate data set.

T1 sequence (P29990 1346-1475 limits assumed): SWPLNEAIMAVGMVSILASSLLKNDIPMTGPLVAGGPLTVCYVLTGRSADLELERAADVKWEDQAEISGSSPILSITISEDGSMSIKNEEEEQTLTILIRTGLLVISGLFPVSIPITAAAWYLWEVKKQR
T1 sequence (P29990 1476-2093 limits assumed): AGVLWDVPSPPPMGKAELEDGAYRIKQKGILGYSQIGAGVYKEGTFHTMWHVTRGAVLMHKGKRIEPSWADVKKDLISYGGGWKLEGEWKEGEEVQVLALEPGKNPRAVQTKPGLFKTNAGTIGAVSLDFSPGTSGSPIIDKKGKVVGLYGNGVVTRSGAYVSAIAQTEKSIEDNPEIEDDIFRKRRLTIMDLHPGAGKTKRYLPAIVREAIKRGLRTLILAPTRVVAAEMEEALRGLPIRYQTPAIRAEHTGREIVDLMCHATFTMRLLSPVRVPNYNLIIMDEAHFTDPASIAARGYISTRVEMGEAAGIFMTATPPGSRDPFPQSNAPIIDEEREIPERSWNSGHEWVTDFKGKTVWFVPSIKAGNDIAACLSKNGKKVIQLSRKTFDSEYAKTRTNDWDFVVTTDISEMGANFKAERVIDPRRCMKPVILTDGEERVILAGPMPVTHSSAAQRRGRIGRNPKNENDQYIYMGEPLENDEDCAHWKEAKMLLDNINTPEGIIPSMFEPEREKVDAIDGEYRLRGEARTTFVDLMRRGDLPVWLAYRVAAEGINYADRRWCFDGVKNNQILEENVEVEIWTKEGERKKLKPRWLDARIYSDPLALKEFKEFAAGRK

Regarding `C[C@H](CC(=O)O)N(C)C(=O)c1cc(Cl)cc(NC(=O)OCc2ccccc2)c1`, the negative logarithm of the IC50 (pIC50) against Genome polyprotein [1] and against Genome polyprotein [2] was below 4.00 each time.
As to `Clc1ccc2[nH]cc(Cc3ccc(-c4nn[nH]n4)cc3)c2c1`, the pIC50 against Genome polyprotein [1] was 4.23; against Genome polyprotein [2], 4.78.
For the compound `C[C@H](CC(=O)O)NC(=O)c1cc(Cl)cc(NC(=O)OCc2ccccc2)c1`, the pIC50 against Genome polyprotein [1] and at Genome polyprotein [2] was below 4.00 throughout.
For the compound `O=C(Nc1cc(Cl)cc(C(=O)Nc2ccccc2[C@@H]2C[C@H]2C(=O)O)c1)OCc1ccccc1`, the pIC50 at Genome polyprotein [1] and on Genome polyprotein [2] was below 4.00 in each case.
`O=C(Nc1cc(Cl)cc(C(=O)NCc2ccc(-c3nnn[nH]3)cc2)c1)OCc1ccccc1`: the pIC50 on Genome polyprotein [1] is 4.68; against Genome polyprotein [2], 4.93 and 5.00.
As to `CC(C)(C)NC(=O)[C@H](Nc1cccc(-c2nn[nH]n2)c1)c1cc(Cl)cc(NC(=O)OCc2ccccc2)c1`, the pIC50 against Genome polyprotein [1] was 4.95; at Genome polyprotein [2], 5.15 and 5.12.
Take `O=C(Nc1cc(Cl)cc(C(=O)N2CCC[C@H]2c2nnn[nH]2)c1)OCc1ccccc1`: the negative logarithm of the IC50 (pIC50) against Genome polyprotein [1] and against Genome polyprotein [2] was below 4.00 in each case.
`C=CC[C@H](Nc1ccc(-c2nn[nH]n2)cc1)c1cc(Cl)cc(NC(=O)OCc2ccccc2)c1`: the negative-log IC50 (pIC50) on Genome polyprotein [1] was 5.18; against Genome polyprotein [2], 5.27 and 5.26.
For the compound `O=C(Nc1cc(Cl)cc([C@H]2CN(Cc3ccccc3)C[C@@H]2c2cccc(-c3nn[nH]n3)c2)c1)OCc1ccccc1`, the values for the pIC50 against Genome polyprotein [1] and against Genome polyprotein [2] were 5.21 and 5.23, respectively.
For `CCCNC(=O)[C@H](Nc1cccc(-c2nn[nH]n2)c1)c1cc(Cl)cc(NC(=O)OCc2ccccc2)c1`, the pIC50 against Genome polyprotein [1] was 4.76; against Genome polyprotein [2], 5.03 and 5.01.
For the compound `O=C(Nc1cc(Cl)cc(C(=O)N2CCC(c3nn[nH]n3)CC2)c1)OCc1ccccc1`, the pIC50 on Genome polyprotein [1] and on Genome polyprotein [2] was below 4.00 each time.
For `C#C[C@H](Nc1cccc(C(=O)O)c1)c1cc(Cl)cc2[nH]ncc12`, the negative logarithm of the IC50 (pIC50) against Genome polyprotein [1] and against Genome polyprotein [2] was below 4.00 throughout.
As for `C[C@H](NC(=O)c1cc(Cl)cc(NC(=O)OCc2ccccc2)c1)C(=O)O`, the pIC50 against Genome polyprotein [1] and against Genome polyprotein [2] was below 4.00 throughout.
Turning to `Cc1c(C(=O)Nc2cccc(-c3nnn[nH]3)c2)n[nH]c1-c1ccc(Cl)cc1`, the pIC50 on Genome polyprotein [1] is 4.38; at Genome polyprotein [2] it was 4.74.
With `COC[C@H](NC(=O)c1cc(Cl)cc(NC(=O)OCc2ccccc2)c1)c1nnn[nH]1`, the pIC50 against Genome polyprotein [1] and at Genome polyprotein [2] was below 4.00 throughout.
In the case of `CC(C)[C@H](NC(=O)c1cc(Cl)cc(NC(=O)OCc2ccccc2)c1)C(=O)O`, the negative logarithm of the IC50 (pIC50) against Genome polyprotein [1] and on Genome polyprotein [2] was below 4.00 throughout.
Turning to `O=C(Nc1cc(Cl)cc(C(=O)N2CCC[C@H](c3nnn[nH]3)C2)c1)OCc1ccccc1`, the pIC50 against Genome polyprotein [1] and against Genome polyprotein [2] was below 4.00 in each case.
With `O=C(Nc1cc(Cl)cc([C@H](Nc2cccc(-c3nn[nH]n3)c2)C(=O)NCc2ccccc2)c1)OCc1ccccc1`, the pIC50 against Genome polyprotein [1] was 5.09; on Genome polyprotein [2], 5.15 and 5.19.
For the compound `C=CC[C@H](Nc1cc(Cl)cc(NC(=O)OCc2ccccc2)c1)c1cccc(CN)c1`, the pIC50 was 4.43 against Genome polyprotein [1] and below 4.00 against Genome polyprotein [2].
For the compound `O=C(Nc1cccc(-c2nnn[nH]2)c1)c1ccc(-c2cccnc2)s1`, the pIC50 against Genome polyprotein [1] and on Genome polyprotein [2] was below 4.00 in each case.
As to `NCc1cc(C(=O)N2CCOCC2)cc([C@@H]2C[C@H]2c2cc(Cl)cc(NC(=O)OCc3ccccc3)c2)c1`, the figures for the pIC50 on Genome polyprotein [1] and against Genome polyprotein [2] were 4.35 and below 4.00, respectively.
Consider `CCOC(=O)[C@H]1[C@H](c2cccc(CN)c2)[C@H]1c1cc(Cl)cc(NC(=O)OCc2ccccc2)c1`, for which the pIC50 against Genome polyprotein [1] and against Genome polyprotein [2] was below 4.00 in each case.
In the case of `C=CC[C@H](Nc1cccc(C(=O)O)c1)c1cc(Cl)cc2[nH]ncc12`, the pIC50 on Genome polyprotein [1] and against Genome polyprotein [2] was below 4.00 in each case.
Consider `Clc1ccc2[nH]cc(Cc3cccc(-c4nn[nH]n4)c3)c2c1`, for which the pIC50 is 4.20 on Genome polyprotein [1] and 4.65 against Genome polyprotein [2].
Take `C=CC[C@H](Nc1cc(Cl)cc(NC(=O)OCc2ccccc2)c1)c1ccc(-c2nn[nH]n2)cc1`: the pIC50 against Genome polyprotein [1] was 5.15; against Genome polyprotein [2], 5.24.
